Source: US8420667B2, “Isoquinolinone derivatives as NK3 antagonists” (H. Lundbeck A/S, priority 2008, dated 2013)

What was measured:
NK3 receptor [1] = molecular target: T1, NK3 receptor (Homo sapiens, UniProt P29371); experiment: NK3 receptor affinity (Ki); format: binding
T1 sequence (P29371 1-465): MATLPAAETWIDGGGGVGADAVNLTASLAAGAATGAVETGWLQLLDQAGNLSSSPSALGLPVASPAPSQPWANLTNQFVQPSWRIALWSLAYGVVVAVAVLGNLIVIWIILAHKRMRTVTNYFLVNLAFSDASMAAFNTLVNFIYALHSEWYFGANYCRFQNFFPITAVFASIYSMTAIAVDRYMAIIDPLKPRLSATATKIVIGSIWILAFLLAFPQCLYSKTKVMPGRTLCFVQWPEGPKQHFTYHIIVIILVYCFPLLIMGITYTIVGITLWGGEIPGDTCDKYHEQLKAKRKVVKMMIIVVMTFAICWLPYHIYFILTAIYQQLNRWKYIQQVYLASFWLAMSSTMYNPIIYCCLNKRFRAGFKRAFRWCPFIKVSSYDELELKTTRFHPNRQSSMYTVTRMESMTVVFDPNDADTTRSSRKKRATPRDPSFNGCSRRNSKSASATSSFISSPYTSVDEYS

NK3 receptor [2] = molecular target: T1, NK3 receptor; details: clinical trials; cited from earlier work

Row | SMILES | Ki (NK3 receptor [1]) | effect on cognitive behaviour of schizophrenics (NK3 receptor [2])
1 | CC[C@H](NC(=O)c1c(C)n(-c2ccccc2)c(=O)c2c(Cl)cccc12)c1ccc(Cl)cc1 [Example 1as, 8-Chloro-3-methyl-1-oxo-2-phenyl-1,2-dihydro-isoquinoline-4-carboxylic acid [(S)-1-(4-chloro-phenyl)-propyl]-amide] | 250 nM | –
2 | CC[C@H](NC(=O)c1c(C)n(-c2ccccc2)c(=O)c2c(Cl)cccc12)c1ccc(F)cc1 [Example 1at, 8-Chloro-3-methyl-1-oxo-2-phenyl-1,2-dihydro-isoquinoline-4-carboxylic acid [(S)-1-(4-fluoro-phenyl)-propyl]-amide] | 180 nM | –
3 | CC[C@H](NC(=O)c1c(C)n(-c2ccccc2)c(=O)c2c(Cl)cccc12)c1ccccc1F [Example 1au, 8-Chloro-3-methyl-1-oxo-2-phenyl-1,2-dihydro-isoquinoline-4-carboxylic acid [(S)-1-(2-fluoro-phenyl)-propyl]-amide] | 270 nM | –
4 | CC[C@H](NC(=O)c1c(C)n(-c2ccccc2)c(=O)c2c(Cl)cccc12)c1cccc(Cl)c1 [Example 1av, 8-Chloro-3-methyl-1-oxo-2-phenyl-1,2-dihydro-isoquinoline-4-carboxylic acid [(S)-1-(3-chloro-phenyl)-propyl]-amide] | 39 nM | –
5 | Cc1c(C(=O)N[C@H](c2cccc(Cl)c2)C2CC2)c2cccc(Cl)c2c(=O)n1-c1ccccc1 [Example 1aw, 8-Chloro-3-methyl-1-oxo-2-phenyl-1,2-dihydro-isoquinoline-4-carboxylic acid [(S)-(3-chloro-phenyl)-cyclopropyl-methyl]-amide] | 59 nM | –
6 | Cc1c(C(=O)N[C@H](c2ccc(Cl)cc2)C2CC2)c2cccc(Cl)c2c(=O)n1-c1ccccc1 [Example 1ax, 8-Chloro-3-methyl-1-oxo-2-phenyl-1,2-dihydro-isoquinoline-4-carboxylic acid [(S)-(4-chloro-phenyl)-cyclopropyl-methyl]-amide] | 150 nM | –
7 | CC[C@H](NC(=O)c1c(C)n(-c2ccccc2)c(=O)c2c(Cl)cccc12)c1cccc(F)c1 [Example 1ay, 8-Chloro-3-methyl-1-oxo-2-phenyl-1,2-dihydro-isoquinoline-4-carboxylic acid [(S)-1-(3-fluoro-phenyl)-propyl]-amide] | 47 nM | –
8 | Cc1c(C(=O)N[C@H](c2ccc(F)cc2)C2CC2)c2cccc(Cl)c2c(=O)n1-c1ccccc1 [Example 1ba, 8-Chloro-3-methyl-1-oxo-2-phenyl-1,2-dihydro-isoquinoline-4-carboxylic acid [(S)-cyclopropyl-(4-fluoro-phenyl)-methyl]-amide] | 55 nM | –
9 | CC[C@H](NC(=O)c1c(C)n(-c2ccccc2)c(=O)c2c(Cl)cccc12)c1ccccc1Cl [Example 1bb, 8-Chloro-3-methyl-1-oxo-2-phenyl-1,2-dihydro-isoquinoline-4-carboxylic acid [(S)-1-(2-chloro-phenyl)-propyl]-amide] | 240 nM | –
10 | Cc1c(C(=O)N[C@H](c2ccccc2Cl)C2CC2)c2cccc(Cl)c2c(=O)n1-c1ccccc1 [Example 1bd, 8-Chloro-3-methyl-1-oxo-2-phenyl-1,2-dihydro-isoquinoline-4-carboxylic acid [(S)-(2-chloro-phenyl)-cyclopropyl-methyl]-amide] | 49 nM | –
11 | Cc1c(C(=O)N[C@H](c2ccccc2F)C2CC2)c2cccc(Cl)c2c(=O)n1-c1ccccc1 [Example 1be, 8-Chloro-3-methyl-1-oxo-2-phenyl-1,2-dihydro-isoquinoline-4-carboxylic acid [(S)-cyclopropyl-(2-fluoro-phenyl)-methyl]-amide] | 45 nM | –
12 | Cc1c(C(=O)N[C@H](c2cccc(F)c2)C2CCC2)c2cccc(Cl)c2c(=O)n1-c1ccccc1 [Example 1bh, 8-Chloro-3-methyl-1-oxo-2-phenyl-1,2-dihydro-isoquinoline-4-carboxylic acid [(S)-cyclobutyl-(3-fluoro-phenyl)-methyl]-amide] | 31 nM | –
13 | Cc1c(C(=O)N[C@H](c2ccc(F)cc2)C2CCC2)c2cccc(Cl)c2c(=O)n1-c1ccccc1 [Example 1bi, 8-Chloro-3-methyl-1-oxo-2-phenyl-1,2-dihydro-isoquinoline-4-carboxylic acid [(S)-cyclobutyl-(4-fluoro-phenyl)-methyl]-amide] | 31 nM | –
14 | Cc1c(C(=O)N[C@@H](c2cccc(F)c2)C2CC2)c2cccc(Cl)c2c(=O)n1-c1ccccc1 [Example 1bl, 8-Chloro-3-methyl-1-oxo-2-phenyl-1,2-dihydro-isoquinoline-4-carboxylic acid [(R)-cyclopropyl-(3-fluoro-phenyl)-methyl]-amide] | 810 nM | –
15 | Cc1c(C(=O)NC(c2ccccc2F)C2CCC2)c2cccc(Cl)c2c(=O)n1-c1ccccc1 (stereo not drawn) [Example 1bo, 8-Chloro-3-methyl-1-oxo-2-phenyl-1,2-dihydro-isoquinoline-4-carboxylic acid [cyclobutyl-(2-fluoro-phenyl)-methyl]-amide] | 150 nM | –
16 | Cc1c(C(=O)N[C@H](c2cccc(F)c2)C2CC2)c2cccc(F)c2c(=O)n1-c1ccccc1 [Example 7e, 8-Fluoro-3-methyl-1-oxo-2-phenyl-1,2-dihydro-isoquinoline-4-carboxylic acid [(S)-cyclopropyl-(3-fluoro-phenyl)-methyl]-amide] | 15 nM | –
17 | Cc1c(C(=O)N[C@H](c2cccc(F)c2)C2CCC2)c2cccc(F)c2c(=O)n1-c1ccccc1 [Example 7h, 8-Fluoro-3-methyl-1-oxo-2-phenyl-1,2-dihydro-isoquinoline-4-carboxylic acid [(S)-cyclobutyl-(3-fluoro-phenyl)-methyl]-amide] | 10 nM | –
18 | CC[C@H](NC(=O)c1c(O)c(-c2ccccc2)nc2ccccc12)c1ccccc1 [talnetant] | – | ameliorate the cognitive behaviour of schizophrenics
